Marks after values point to notes of the source that are not given here.
What was measured:
[1] = molecular target: T1, Transporter, Norepinephrine (NET) (Homo sapiens, UniProt P23975); experiment: Receptor binding 204410
T1 construct: Eurofins (contract assay) 204410
Method: (§1) Radioligand binding to a panel of receptors was carried out by Eurofins on crude membrane preparations according to published procedures and by using appropriate reference standard (Eurofins, CVie 101 compound code PT #1207859, study #AB76416, quote #68407-1, for Cvie Therapeutics Limited, Taiwan (R.OC.) on Mar. 5, 2017). CVie 101 was tested at the concentration of 10 μM. No significant interaction was documented, except for Sodium Channel, site 2 from rat (cat #279510), where a significant response (≥50%) was noted (Table 7).

[2] = tested on: guinea pig isolated cardiomyocytes; experiment: SR Ca2+ uptake function (loading protocol) in isolated ventricular cardiomyocytes; format: cell-based; details: 100 nM
Method: The compounds were characterized for their effect on (i) SR Ca^2+ uptake function, (ii) action potential (AP) in myocytes freshly dissociated from guinea-pig ventricles by retrograde coronary perfusion with enzymatic solution (Rocchetti M et al. J Pharmacol Exper Therap 2005; 313(1):207-215).
Drug effects on SR Ca^2+ uptake rate were evaluated with an SR “loading protocol” specifically devised to rule out the contribution of the Na/Ca exchanger (NCX) and to assess the uptake rate starting at low levels of SR Ca^2+ loading. Under voltage-clamp conditions, intracellular Ca^2+ concentration was dynamically measured by epifluorescence (Fluo4-AM). Membrane current, whose time-dependent component mainly reflected ICaL, was simultaneously recorded. The SR loading protocol consisted in emptying the SR (by a brief caffeine pulse) and then progressively refilling it by voltage steps activating Ca^2+ influx through the sarcolemmal Ca^2+ channel (ICaL). NCX was blocked by omission of Na^+ from intracellular and extracellular solutions. The procedure is in agreement with published methods, with minor modifications (Rocchetti M et al. J Pharmacol Exper Therap 2005; 313(1):207-215).
Drug effects on SR Ca^2+ uptake were analysed by considering multiple parameters: 1) the rate at which Ca^2+ transient (CaT) amplitude increased during the loading protocol, which reflects the rate at which the SR refilled and 2) the time constant of cytosolic Ca^2+ decay (Tdecay) within each pulse, reflecting net Ca^2+ transport rate (by SERCA2a) across the SR membrane (a decrease in Tdecay corresponds to enhanced SR Ca^2+ uptake).

SERCA2a = molecular target: T2, SERCA2a (Canis lupus familiaris, UniProt O46674); experiment: SERCA2a ATPase activity in heart-derived SR microsomes from normal dog; format: biochemical; details: for Vmax (SERCA2a ATPase activity): mean ± SD
T2 construct: pre-incubated with 2 μg of microsomes; from tissue; host or cells: dog heart left ventricle, SR microsomes
Method: Left ventricle tissues were dissected, homogenized in 4 volumes of 10 mM NaHCO3, pH 7, 1 mM PMSF, 10 μg/ml Aprotinin and Leupeptin and centrifuged at 12,000 g for 15 minutes, as published (Nediani C. et al. J Biol Chem. 1996; 271:19066-73). Supernatants were filtered and centrifuged at 100,000 g for 30 min. Contractile proteins were extracted by suspending the pellets with 0.6 M KCl, 30 mM Histidine, pH 7 and further centrifugation at 100,000 g for 30 min. Final pellets were reconstituted with 0.3 M Sucrose, 30 mM Histidine, pH 7.
SERCA2a activity was measured “in vitro” as ^32P-ATP hydrolysis at different Ca^2+ concentrations (100-4000 nM) in the absence and presence of the tested compounds, as described (Micheletti R. et al. Am J Card 2007; 99:24A-32A). Increasing concentrations of each compound (from 1 to 100 nM) were pre-incubated with 2 μg of microsomes for 5 min at 4° C. in 80 μl of a solution containing 100 mM KCl, 5 mM MgCl2, 1 μM A23187, 20 mM Tris, pH 7.5. Then, 20 μl of 5 mM Tris-ATP containing 50 nCi of ^32P-ATP (3-10 Ci/mmol, Perkin Elmer) were added. The ATP hydrolysis was continued for 15 min at 37° C. and the reaction was stopped by acidification with 100 μl of 20% v/v ice-cold perchloric acid. ^32P was separated by centrifugation with activated charcoal (Norit A, SERVA) and the radioactivity was measured. SERCA2a-dependent activity was identified as the portion of total hydrolytic activity inhibited by 10 μM cyclopiazonic acid (Seidler N W. et al. J Biol Chem. 1989; 264:17816-23).
Dose-response curves were fitted by using a sigmoidal curve fitting software and the maximal velocity (Vmax) activity and the Kd Ca^2+ were calculated (Synergy Software KaleidaGraph 3.6).

dog renal Na,K-ATPase = molecular target: T3, dog renal Na,K-ATPase (Canis lupus familiaris, UniProt P50997); experiment: Inhibition of dog renal Na,K-ATPase activity (32P-ATP release); format: biochemical
T3 construct: incubated with 0.3 μg of purified dog kidney enzyme; from tissue; host or cells: dog kidney outer medulla
Method: Kidneys were sliced and the outer medulla was dissected, pooled and suspended (1 g/10 ml) in a sucrose-histidine solution, containing 250 mM sucrose, 30 mM histidine and 5 mM EDTA, pH 7.2 and homogenized. […] The pellet was suspended in the sucrose-histidine buffer and incubated for 20 min with a sodium-dodecyl-sulphate (SDS) solution dissolved in a gradient buffer, containing 25 mM imidazole and 1 mM EDTA, pH 7.5. […] The pellet was suspended in the gradient buffer.
Increasing concentrations of the standard ouabain, or tested compound, were incubated with 0.3 μg of purified dog kidney enzyme for 10 min at 37° C. in 120 μl final volume of a medium, containing 140 mM NaCl, 3 mM MgCl2, 50 mM Hepes-Tris, 3 mM ATP, pH 7.5. […] The inhibitory activity was expressed as percent of the control samples carried out in the absence of ouabain or tested compound.

[3] = tested on: GABAA, Flunitrazepam, Central; experiment: Receptor binding 226600; set-up: species or system rat; details: 10 μM
Method: as §1

[4] = tested on: Glutamate, NMDA, Phencyclidine; experiment: Receptor binding 233000; set-up: species or system rat; details: 10 μM
Method: as §1

Glucocorticoid = molecular target: T4, Glucocorticoid (Homo sapiens, UniProt P04150); experiment: Receptor binding 232030
T4 construct: Eurofins (contract assay) 232030
Method: as §1

T2 sequence (O46674 whole entry): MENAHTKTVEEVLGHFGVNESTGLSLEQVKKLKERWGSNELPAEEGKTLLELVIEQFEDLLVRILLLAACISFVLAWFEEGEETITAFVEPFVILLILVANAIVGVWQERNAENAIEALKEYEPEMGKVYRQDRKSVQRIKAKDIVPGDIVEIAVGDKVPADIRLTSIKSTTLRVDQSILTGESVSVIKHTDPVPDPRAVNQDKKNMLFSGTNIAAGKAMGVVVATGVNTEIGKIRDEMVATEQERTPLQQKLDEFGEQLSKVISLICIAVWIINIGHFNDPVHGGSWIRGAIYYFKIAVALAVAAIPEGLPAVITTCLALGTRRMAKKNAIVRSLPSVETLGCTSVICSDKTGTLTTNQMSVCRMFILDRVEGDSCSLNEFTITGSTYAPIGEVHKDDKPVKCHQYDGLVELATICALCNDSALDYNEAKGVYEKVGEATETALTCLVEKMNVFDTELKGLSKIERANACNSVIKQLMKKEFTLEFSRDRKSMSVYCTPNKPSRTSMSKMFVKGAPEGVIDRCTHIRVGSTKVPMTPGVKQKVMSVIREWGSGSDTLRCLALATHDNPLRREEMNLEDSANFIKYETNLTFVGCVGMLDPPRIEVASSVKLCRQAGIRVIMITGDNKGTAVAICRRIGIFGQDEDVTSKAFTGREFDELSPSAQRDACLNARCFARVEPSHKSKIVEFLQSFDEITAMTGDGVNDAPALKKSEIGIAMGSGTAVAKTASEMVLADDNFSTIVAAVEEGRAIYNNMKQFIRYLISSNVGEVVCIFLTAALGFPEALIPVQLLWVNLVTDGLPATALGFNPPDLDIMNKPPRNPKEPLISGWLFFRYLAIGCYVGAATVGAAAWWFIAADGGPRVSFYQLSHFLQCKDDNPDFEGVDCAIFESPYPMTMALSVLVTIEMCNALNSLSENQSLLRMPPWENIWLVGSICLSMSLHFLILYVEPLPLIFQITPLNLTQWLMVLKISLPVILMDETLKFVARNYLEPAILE
T1 sequence (P23975 whole entry): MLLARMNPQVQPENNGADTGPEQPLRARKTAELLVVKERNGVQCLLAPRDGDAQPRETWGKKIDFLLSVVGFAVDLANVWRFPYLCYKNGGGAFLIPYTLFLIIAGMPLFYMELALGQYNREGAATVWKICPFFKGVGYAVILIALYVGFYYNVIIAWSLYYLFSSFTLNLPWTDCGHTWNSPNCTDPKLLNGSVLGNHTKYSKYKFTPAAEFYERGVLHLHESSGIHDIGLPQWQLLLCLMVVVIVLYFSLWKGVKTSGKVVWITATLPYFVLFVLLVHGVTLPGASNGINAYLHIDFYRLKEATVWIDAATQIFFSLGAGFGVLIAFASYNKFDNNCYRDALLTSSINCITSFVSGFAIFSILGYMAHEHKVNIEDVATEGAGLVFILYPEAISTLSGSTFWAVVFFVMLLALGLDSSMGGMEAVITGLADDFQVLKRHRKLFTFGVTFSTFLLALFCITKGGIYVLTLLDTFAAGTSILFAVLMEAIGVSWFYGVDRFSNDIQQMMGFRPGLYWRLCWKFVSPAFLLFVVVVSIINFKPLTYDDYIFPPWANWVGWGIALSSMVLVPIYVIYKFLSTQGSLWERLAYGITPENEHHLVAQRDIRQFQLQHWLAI
T4 sequence (P04150 whole entry): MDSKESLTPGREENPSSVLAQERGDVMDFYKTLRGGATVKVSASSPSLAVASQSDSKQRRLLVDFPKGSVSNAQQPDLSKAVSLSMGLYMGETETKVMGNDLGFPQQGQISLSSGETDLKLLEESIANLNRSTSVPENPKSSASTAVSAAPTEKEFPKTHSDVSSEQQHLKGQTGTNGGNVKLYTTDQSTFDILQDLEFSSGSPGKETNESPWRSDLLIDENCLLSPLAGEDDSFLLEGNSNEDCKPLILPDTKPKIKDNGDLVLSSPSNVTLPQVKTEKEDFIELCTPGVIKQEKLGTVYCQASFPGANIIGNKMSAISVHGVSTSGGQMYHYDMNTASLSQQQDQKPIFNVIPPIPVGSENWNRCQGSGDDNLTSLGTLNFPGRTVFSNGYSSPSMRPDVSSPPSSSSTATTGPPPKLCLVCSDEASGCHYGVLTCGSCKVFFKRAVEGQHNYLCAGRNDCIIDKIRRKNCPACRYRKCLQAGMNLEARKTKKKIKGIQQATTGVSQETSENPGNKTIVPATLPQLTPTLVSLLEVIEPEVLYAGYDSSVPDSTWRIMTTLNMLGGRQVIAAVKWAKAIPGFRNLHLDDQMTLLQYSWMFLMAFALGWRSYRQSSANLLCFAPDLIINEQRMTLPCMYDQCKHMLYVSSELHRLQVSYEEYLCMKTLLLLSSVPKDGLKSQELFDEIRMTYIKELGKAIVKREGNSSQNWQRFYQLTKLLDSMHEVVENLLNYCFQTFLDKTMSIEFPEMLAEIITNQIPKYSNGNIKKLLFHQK

C[C@]12CC[C@H](O)C[C@H]1CCC1C2CC[C@]2(C)[C@@H](c3c[nH]cn3)CC[C@]12O (stereo partly drawn) [CVie 101, 3β-hydroxy-5β-10β-methyl-13β-methyl-14β-hydroxy-17β-(imidazol-4-yl)androstane]
inhibition at 10 µM [1]: 2% | rate of Ca2+ transient (CaT) increment during SR reloading ([2]; FIG. 1A, 1C): increased | time constant of cytosolic Ca2+ decay within each pulse (τdecay) ([2]; FIG. 1B, 1D): decreased | % increase vs Control (SERCA2a Vmax) (SERCA2a; compound 10 nM): 15%* | Vmax (SERCA2a ATPase activity) (SERCA2a; compound 10 nM): 2.737 ± 0.336 (n = 7) μmol/min/mg prot | % increase vs Control (SERCA2a Vmax) (SERCA2a; compound 100 nM): 19%* | Vmax (SERCA2a ATPase activity) (SERCA2a; compound 100 nM): 2.832 ± 0.198 (n = 7) μmol/min/mg prot | IC50 (dog renal Na,K-ATPase): 710 nM | % inhib [3]: 6% | % inhib [4]: 7% | inhibition at 10 µM (Glucocorticoid): 10%

Reference: patent US11730746B2, “17beta-heterocyclyl-digitalis like compounds for the treatment of heart failure” (priority 2018, dated 2023)
